# Measurements published in patent publication US11981626B1, “Compound embodiments for hydrogen sulfide production and methods of making and using the same” (University of Oregon, priority 2018, dated 2024).
# Legend:
# [1] = system: macrophage RAW 264.7 cells; test: LPS-induced NO2− formation in macrophage RAW 264.7 cells (Griess); assay type: cell-based; conditions: 25 μM pretreatment 6 hours, LPS 1.0 μg/mL 18 hours
# Protocol: In this example, the ability of embodiments of the disclosed donor compound to provide anti-inflammatory activity was evaluated. To investigate the potential protective effects of the developed donors, pretreated macrophage RAW 264.7 cells were pretreated with γ-KetoTCM-1 (25 μM) for 6 hours, followed by an 18-hour incubation with lipopolysaccharide (LPS, 1.0 μg/mL) to induce an inflammatory response. This response is accompanied by an increase in NO production, which was monitored by measuring nitrite (NO2−) accumulation. To determine whether the observed effects were due to COS/H2S release, control experiments with γ-KetoTCM-3, γ-KetoCM-1, and GYY4137 under the identical condition also were performed. GYY4137 was used as a positive control because it has shown anti-inflammatory effects previously, and because it generates a slow, continuous release of H2S.
# In this example, macrophage RAW 264.7 cells were seeded in a 24-well plate (5×10^5 cells/well) containing 0.50 mL of DMEM and incubated at 37° C. under 5% CO2 for 24 hours. The confluent cells were washed with PBS and incubated with either γ-KetoTCM-1, γ-KetoTCM-3, γ-KetoCM-1, or GYY4137 (25.0 μM) at 37° C. for 6 hours. Compounds were then removed by washing cells with PBS and these pretreated cells were incubated in FBS-free DMEM containing LPS (1.00 μg/mL) for 18 hours. NO2− levels were measured by using a Griess Reagent Kit.
# [2] = COS/H2S release monitored by PNA formation (UV-Vis) in PBS containing CA; assay type: physicochemical; conditions: for half-life at 50 μM: PBS containing carbonic anhydrase (CA); for half-life at 50 μM / kobs (COS/H2S releasing kinetics): 37° C.; for kobs (COS/H2S releasing kinetics): CA 25 μg/mL, 50 μM; for krel: relative to γ-KetoTCM-1 at pH 7.4
# Protocol: To investigate COS/H2S release from donor compound embodiments, γ-KetoTCM-1 (50 μM) was incubated in PBS (pH 7.4, 10 mM) containing CA (25 μg/mL) and H2S release was detected by monitoring para-nitroaniline (PNA) formation at 37° C. In particular, a γ-KetoTCM-1 stock solution (15.0 μL, 10.0 mM in DMSO) was added to 3.00 mL of PBS (pH 6.00, 7.40 or 8.00, 10.0 mM) containing CA (25.0 μg/mL) in a quartz UV cuvette. The absorbance (250-500 nm) was measured and recorded by using Agilent Cary 100 or Cary 60 UV-Vis spectrometers at 37° C. kobs was then obtained by plotting the absorbance ratio of PNA and γ-KetoTCM-1 versus time and t1/2 was calculated by dividing In(2) by kobs.
# In this example, pH effects on COS/H2S release were investigated by incubating γ-KetoTCM-1 (50 μM) in PBS (pH 6.0-8.0) and monitoring with a UV-Vis spectrometer. […] In particular, a γ-KetoTCM-1 stock solution (15.0 μL, 10.0 mM in DMSO) was added to 3.00 mL of PBS (pH 6.00, 10.0 mM) containing CA (25.0 μg/mL) in a 3-mL UV cuvette. The absorbance (250-500 nm) was measured and recorded at 37° C. kobs was then obtained by plotting the absorbance ratio of PNA and γ-KetoTCM-1 vs time.
# [3] = COS/H2S release monitored by PNA formation (UV-Vis) in PBS containing BSA and CA; assay type: physicochemical
# Protocol: In this example, compound activation and subsequent COS/H2S release in PBS containing bovine serum albumin (BSA) was evaluated to mimic a complex biological environment. γ-KetoTCM-1 (50 μM) was incubated in PBS (pH 7.4, 10 mM) containing BSA (5 mg/mL) and CA (25 μg/mL) at 37° C. In particular, A γ-KetoTCM-1 stock solution (15.0 μl_, 10.0 mM in DMSO) was added to 3.00 mL of PBS (pH 7.40, 10.0 mM) containing BSA (5.00 mg/mL) and CA (25.0 μg/mL) in a quartz UV cuvette. The absorbance (250-500 nm) was measured and recorded by using an Agilent Cary 100 UV-Vis spectrometer at 37° C.
# [4] = H2S production measured by methylene blue (MB) assay in PBS containing BSA and CA; assay type: physicochemical; conditions: 37° C.
# Protocol: Using the same conditions, H2S production was measured at different time points using the MB assay (FIG. 5A, curve labeled with the “▾” symbol). The MB assay allows for H2S quantification from the reaction of H2S with N,N-dimethyl-p-phenylenediamine in the presence of FeCl3 and acid to produce methylene blue (MB, λmax=670). In the MB assay, a γ-KetoTCM-1 stock solution (100 μL, 10.0 mM in DMSO) was added to 20.0 mL of PBS (pH 7.40, 10.0 mM) containing BSA (5.00 mg/mL) and CA (25.0 μg/mL) in a 25-mL scintillation vial at 37° C. Next, 0.300 mL aliquots of the reaction mixture were transferred to UV cuvettes containing 0.300 mL of MB cocktail at different time points. The MB reaction mixture was incubated at room temperature for 1 hour and the precipitate was removed using syringe filters. The absorbance at 670 nm was then measured and was converted to H2S concentration by using the H2S calibration curve in FIG. 6. […] The MB solution was allowed to react with H2S for 1 hour before measuring the absorbance at 670 nm.
# The linearity between these two methods was lost after 60 minutes due to the oxidation of H2S in the MB assay at extended incubation times (FIG. 5A). […] The absorbance at 670 nm was then measured and converted to H2S concentration by using the H2S calibration curve in FIG. 6. […]
# [5] = Effects of cellular nucleophiles on COS/H2S release (PNA formation, UV-vis); assay type: physicochemical; conditions: PBS pH 7.4, Cys, NAC, Hcy, GSH, Lys, Ser, Gly, GSSG, 4-hour incubation, 37° C.
# Protocol: To determine the effects of cellular nucleophiles on COS/H2S release, γ-KetoTCM-1 was incubated in […] PBS buffer (pH 7.4, 10 mM) containing (1) no cellular nucleophile (FIG. 4, bar 1); or 250 μM of Cys (FIG. 4, bar 2), 250 μM of N-acetyl cysteine (NAC) (FIG. 4, bar 3), 250 μM of homocysteine (Hcy) (FIG. 4, bar 4), 250 μM of GSH […] (FIG. 4, bar 5), 250 μM of lysine (Lys) (FIG. 4, bar 6), 250 μM of serine (Ser) (FIG. 4, bar 7), 250 μM of glycine (Gly) (FIG. 4, bar 8), or 250 μM of oxidized glutathione (GSSG) (FIG. 4, bar 9) at 37° C. PNA formation was monitored and recorded after a 4-hour incubation using UV-vis spectroscopy.
# [6] = system: HeLa cells; test: H2S delivery in HeLa cells imaged with SF7-AM fluorescent probe; assay type: cell-based; conditions: 100 μM, 2 hours
# Protocol: In this example, it was evaluated whether γ-KetoTCM-based donors can be activated to deliver H2S in cellular environments. SF7-AM, a cell-trappable H2S fluorescent probe, was used to monitor H2S accumulation from γ-KetoTCM-1 in HeLa cells. In the absence of γ-KetoTCM-1, no fluorescent signal from SF7-AM was observed, indicating negligible endogenous H2S (FIG. 9, left column, including the top and bottom images).
# HeLa cells were plated in poly-D-lysine coated plates (MatTek) containing 2.00 mL of DMEM and incubated at 37° C. under 5% CO2 for 24 hours. The confluent cells were washed with PBS and then co-incubated with SF7-AM (5.00 μM) and NucBlue nuclear dye (2 drops) for 30 minutes. The cells were then washed with PBS and incubated with either γ-KetoTCM-1 (100 μM) or γ-KetoCM-1 (100 μM) alone for 2 hours. Prior to imaging, the cells were washed with PBS and bathed in 2.00 mL of PBS. Cell imaging was performed on a Leica DMi8 fluorescent microscope.
# [7] = H2S release observed with an H2S electrode at different pH; assay type: physicochemical; conditions: PBS pH 6.0-8.0
# Excerpt: H2S release was also observed by using an H2S electrode, confirming that H2S was released in this system and such H2S release was pH-dependent (FIGS. 3A and 3B). This example therefore establishes that COS/H2S release from compound embodiments of the present disclosure can be pH dependent.
SMILES,"half-life at 50 μM ([2]; pH 7.4, pH 7.4 PBS, ln(2)/kobs)",effect on LPS-induced NO2− production [1],kobs (COS/H2S releasing kinetics) ([2]; pH 7.4 PBS),krel ([2]; pH 7.4 PBS),SF7-AM fluorescence (H2S accumulation) [6],further results
"C1COCCN1.COc1ccc(P(=S)(S)N2CCOCC2)cc1 (stereo not drawn) [GYY4137, reference compound]",,less pronounced effect,,,,
CC(=O)C(C)COC(=S)Nc1ccc([N+](=O)[O-])cc1 (stereo not drawn) [γ-KetoTCM-2],25.9 h,,0.82 ± 0.02 ×10^−5 s^−1,0.188,,
CC(=O)C(C)(C)COC(=S)Nc1ccc([N+](=O)[O-])cc1 [γ-KetoTCM-3],,modest reduction,,,,"PNA released in PBS buffer (indicating COS/H2S release) ([2]; PBS pH 7.4, 37° C.): negligible"

# Now from value to compound, other results behind:
"half-life at 50 μM ([2]; pH 7.4, pH 7.4 PBS, ln(2)/kobs)",SMILES,effect on LPS-induced NO2− production [1],kobs (COS/H2S releasing kinetics) ([2]; pH 7.4 PBS),krel ([2]; pH 7.4 PBS),SF7-AM fluorescence (H2S accumulation) [6],further results
4.26 h,CC(=O)CCOC(=S)Nc1ccc([N+](=O)[O-])cc1 [γ-KetoTCM-1],significantly reduced,4.52±0.02 ×10^−5 s^−1,1.00,significant increase in SF7-AM fluorescence,"half-life at 50 μM ([2]; pH 6, pH 6.0 PBS, ln(2)/kobs): 50.7 ± 0.8 h; half-life at 50 μM ([2]; pH 8, pH 8.0 PBS): 1.53 ± 0.03 h; kobs (COS/H2S releasing kinetics) ([2]; pH 6.0 PBS): 0.380 ± 0.006 ×10^−5 s^−1; krel ([2]; pH 6.0 PBS): 0.084; kobs (COS/H2S releasing kinetics) ([2]; pH 8.0 PBS): 12.6 ± 0.2 ×10^−5 s^−1; krel ([2]; pH 8.0 PBS): 2.79; half-life at 50 μM ([3]; PBS containing BSA and carbonic anhydrase (CA), pH 7.4 PBS containing BSA (5 mg/mL), 37° C.): 0.24 ± 0.01 h; pseudo first-order rate constant kobs from fitting the UV-vis data ([3]; PBS pH 7.4, BSA 5 mg/mL, CA, 37° C.): 8.1±0.3 ×10^−4 s^−1; kobs (COS/H2S releasing kinetics) ([3]; pH 7.4 PBS containing BSA (5 mg/mL), CA, 37° C.): 81.0 ± 3.0 ×10^−5 s^−1; krel ([3]; pH 7.4 PBS containing BSA (5 mg/mL), relative to pH 7.4 without BSA): 18.0; H2S release efficiency ([4]; MB assay, 50 μM, PBS pH 7.4, BSA): 70%; pseudo first-order rate constant kobs from fitting the MB data ([4]; PBS pH 7.4, BSA 5 mg/mL, up to plateau (~60 minutes)): 8.6±0.9 ×10^−4 s^−1; PNA formation in presence of cellular nucleophiles versus background [5]: None of the tested nucleophiles resulted in substantial PNA formation; H2S release by H2S electrode [7]: pH-dependent"
13.4 ± 0.3 h,CC(=O)CCOC(=O)Nc1ccc([N+](=O)[O-])cc1 [γ-KetoCM-1],"reduced NO2− levels, although to a lesser extent than γ-KetoTCM-1",1.44 ± 0.03 ×10^−5 s^−1,0.32,failed to provide a SF7-AM signal,
